Results reported in ChEMBL document CHEMBL1132806, “Anti-HIV activity of a series of cosalane amino acid conjugates” (Bioorg Med Chem Lett, 2000).

What was measured:
[1] = Cytotoxicity of compound was tested as concentration required for 50% reduction in cellular viability in CEM-SS cells; type: cell-based; details: human
[2] = tested on: CEM-SS; assay: Tested for inhibition of cytopathic effect of HIV-1RF in CEM-SS cells; type: functional, cell-based; details: Homo sapiens
[3] = tested on: MT4; assay: Tested for inhibition of cytopathic effect of HIV-1 IIIB in MT-4 cells; type: functional, cell-based; details: Homo sapiens
[4] = tested on: MT4; assay: Tested for inhibition of cytopathic effect of HIV-2ROD in MT-4 cells; type: functional, cell-based; details: Homo sapiens
[5] = Cytotoxicity of compound was tested as concentration required for 50% reduction in cellular viability in MT-4 cells; type: cell-based, MT4; details: human

| Structure (SMILES) | EC50 [2] | CC50 [1] | EC50 [3] | EC50 [4] | CC50 [5] |
| --- | --- | --- | --- | --- | --- |
| CC(C)CCCC(C)[C@H]1CC[C@H]2[C@@H]3CCC4C[C@@H](CCCC(c5cc(Cl)c(O)c(C(=O)NCC(=O)O)c5)c5cc(Cl)c(O)c(C(=O)NCC(=O)O)c5)CC[C@]4(C)[C@H]3CC[C@]12C (stereo partly specified) | 4.5 µM | > 200 µM | 34.8 µM | > 125 µM | > 125 µM |
| CC(C)CCCC(C)[C@H]1CC[C@H]2[C@@H]3CCC4C[C@@H](CCC=C(c5cc(Cl)c(O)c(C(=O)N[C@@H](Cc6ccccc6)C(=O)O)c5)c5cc(Cl)c(O)c(C(=O)N[C@@H](Cc6ccccc6)C(=O)O)c5)CC[C@]4(C)[C@H]3CC[C@]12C (stereo partly specified) | > 200 µM | > 200 µM | > 62 µM | > 62 µM | 62 µM |
| CC(C)CCCC(C)[C@H]1CC[C@H]2[C@@H]3CCC4C[C@@H](CCC=C(c5cc(Cl)c(O)c(C(=O)O)c5)c5cc(Cl)c(O)c(C(=O)O)c5)CC[C@]4(C)[C@H]3CC[C@]12C (stereo partly specified) | – | > 200 µM | – | – | > 200 µM |
| CC(C)CCCC(C)[C@H]1CC[C@H]2[C@@H]3CCC4C[C@@H](CCC=C(c5cc(Cl)c(O)c(C(=O)NCC(=O)O)c5)c5cc(Cl)c(O)c(C(=O)NCC(=O)O)c5)CC[C@]4(C)[C@H]3CC[C@]12C (stereo partly specified) | 3.44 µM | > 200 µM | 50.8 µM | > 125 µM | > 125 µM |
| CC(C)CCCC(C)[C@H]1CC[C@H]2[C@@H]3CCC4C[C@@H](CCC=C(c5cc(Cl)c(O)c(C(=O)NCC(=O)OC(C)(C)C)c5)c5cc(Cl)c(O)c(C(=O)NCC(=O)OC(C)(C)C)c5)CC[C@]4(C)[C@H]3CC[C@]12C (stereo partly specified) | – | > 125 µM | > 125 µM | > 125 µM | > 125 µM |

The next lines start with results.

| EC50 [2] | Structure (SMILES) | CC50 [1] | EC50 [3] | EC50 [4] | CC50 [5] |
| --- | --- | --- | --- | --- | --- |
| 34.7 µM | CC(C)CCCC(C)[C@H]1CC[C@H]2[C@@H]3CCC4C[C@@H](CCC=C(c5cc(Cl)c(O)c(C(=O)NCCC(=O)O)c5)c5cc(Cl)c(O)c(C(=O)NCCC(=O)O)c5)CC[C@]4(C)[C@H]3CC[C@]12C (stereo partly specified) | > 200 µM | 75.3 µM | 120 µM | > 125 µM |
| 10.7 µM | CC(C)CCCC(C)[C@H]1CC[C@H]2[C@@H]3CCC4C[C@@H](CCC=C(c5cc(Cl)c(O)c(C(=O)N[C@@H](CC(=O)O)C(=O)O)c5)c5cc(Cl)c(O)c(C(=O)N[C@@H](CC(=O)O)C(=O)O)c5)CC[C@]4(C)[C@H]3CC[C@]12C (stereo partly specified) | 90 µM | 16.6 µM | 122 µM | > 125 µM |
| 11.6 µM | CC(C)CCCC(C)[C@H]1CC[C@H]2[C@@H]3CCC4C[C@@H](CCCC(c5cc(Cl)c(O)c(C(=O)N[C@@H](CCC(=O)O)C(=O)O)c5)c5cc(Cl)c(O)c(C(=O)N[C@@H](CCC(=O)O)C(=O)O)c5)CC[C@]4(C)[C@H]3CC[C@]12C (stereo partly specified) | 34 µM | 10.6 µM | 75.2 µM | > 125 µM |
| 40 µM | CC(C)CCCC(C)[C@H]1CC[C@H]2[C@@H]3CCC4C[C@@H](CCC=C(c5cc(Cl)c(O)c(C(=O)N[C@@H](CC(C)C)C(=O)O)c5)c5cc(Cl)c(O)c(C(=O)N[C@@H](CC(C)C)C(=O)O)c5)CC[C@]4(C)[C@H]3CC[C@]12C (stereo partly specified) | > 200 µM | 63 µM | > 125 µM | > 125 µM |
| 1.1 µM | CC(C)CCCC(C)[C@H]1CC[C@H]2[C@@H]3CCC4C[C@@H](CCC=C(c5cc(Cl)c(O)c(C(=O)N[C@@H](CCC(=O)O)C(=O)O)c5)c5cc(Cl)c(O)c(C(=O)N[C@@H](CCC(=O)O)C(=O)O)c5)CC[C@]4(C)[C@H]3CC[C@]12C (stereo partly specified) | 82 µM | 9.2 µM | 71.6 µM | > 125 µM |
